Test results reported in ChEMBL document CHEMBL1153365, “Identification of potent pyrimidine inhibitors of phosphodiesterase 7 (PDE7) and their ability to inhibit T cell proliferation” (Bioorg Med Chem Lett, 2009).
In brackets after ≈: the same amount, converted by molar mass.

Columns and labels:
[1] = Inhibition of PDE7
PBMC [2] = assay: Immunosuppressant activity in PBMC assessed as cytotoxicity; type: functional, cell-based; settings: Homo sapiens
[3] = Aqueous solubility at pH 6.5; type: physicochemical
[4] = Inhibition of PDE4
PBMC [5] = assay: Immunosuppressant activity in PBMC assessed as antiproliferation after 3 days by [3H]thymidine incorporation assay; type: functional, cell-based; settings: Homo sapiens
[6] = Inhibition of PDE1
[7] = target: cGMP-specific 3',5'-cyclic phosphodiesterase (Homo sapiens, UniProt O76074); assay: Inhibition of PDE5
[8] = Inhibition of PDE3
[9] = Immunosuppressant activity in PDE7 knockout splenocyte assessed as antiproliferation; type: functional, cell-based
Splenocyte = assay: Immunosuppressant activity in wild type splenocyte assessed as antiproliferation; type: functional, cell-based; settings: Mus musculus

Question: With `CCOC(=O)c1sc(Nc2nc(NCc3ccc(S(N)(=O)=O)cc3)c3c(ncn3CC)n2)nc1C` as the compound, how does the IC50 [1] read?
Answer: The IC50 was 0.01 µM.

Question: Which IC50 [1] does the source give for `CCOC(=O)c1sc(Nc2nc(N3CCNCC3)c3c(n2)N(Cc2cc(OC)c(OC)c(OC)c2)CC3)nc1C` here?
Answer: Its IC50 is 0.006 µM.

Question: Which IC50 [1] does the source give for `CCOC(=O)c1sc(Nc2nccc(NCc3ccc(S(N)(=O)=O)cc3)n2)nc1C` here?
Answer: Its IC50 is 0.22 µM.

Question: Which IC50 (PBMC [2]) does the source give for `CCOC(=O)c1sc(Nc2nc(N3CCC(N(C)C)CC3)cc(N3CCCC(CO)C3)n2)nc1C` (stereo not given) here?
Answer: The IC50 was > 25 µM.

Question: And the solubility [3]?
Answer: The solubility was > 20 µg/mL.

Question: What about the IC50 [4] of the same compound?
Answer: The IC50 was 9.3 µM.

Question: What about the IC50 (PBMC [5]) of the same compound?
Answer: Its IC50 is 5 µM.

Question: What about the IC50 [6] of the same compound?
Answer: The IC50 was 11 µM.

Question: What about the IC50 [1] of the same compound?
Answer: The IC50 was 0.12 µM.

Question: And the IC50 [7]?
Answer: Its IC50 is > 10 µM.

Question: What about the IC50 [8] of the same compound?
Answer: Its IC50 is > 50 µM.

Question: With `CCOC(=O)c1sc(Nc2nc(N3CCC(O)CC3)cc(N3CCC(N(C)C)CC3)n2)nc1C` as the compound, how does the IC50 (PBMC [2]) read?
Answer: The IC50 was > 25 µM.

Question: And the solubility [3]?
Answer: Its solubility is 20 µg/mL (≈ 40.8 µM).

Question: What about the IC50 [4] of the same compound?
Answer: Its IC50 is > 10 µM.

Question: And the IC50 (PBMC [5])?
Answer: The IC50 was 1.5 µM.

Question: And the IC50 [6]?
Answer: Its IC50 is 23 µM.

Question: What about the IC50 [1] of the same compound?
Answer: Its IC50 is 0.076 µM.

Question: What about the IC50 [7] of the same compound?
Answer: Its IC50 is > 10 µM.

Question: And the IC50 [8]?
Answer: The IC50 was > 50 µM.

Question: Which results are given for `CCOC(=O)c1sc(Nc2nc(N3CCC(O)CC3)cc(N3CCC(O)CC3)n2)nc1C`?
Answer: IC50 (PBMC [2]): > 25 µM; solubility [3]: 20 µg/mL (≈ 43.2 µM); IC50 [4]: 3.2 µM; IC50 [9]: 0.15 µM; IC50 (PBMC [5]): 0.12 µM; IC50 (Splenocyte): 0.21 µM; IC50 [6]: 4.9 µM; IC50 [1]: 0.063 µM; IC50 [7]: 0.7 µM; IC50 [8]: 20 µM

Question: Which IC50 (PBMC [2]) does the source give for `CCOC(=O)c1sc(Nc2nc(N3CCOCC3)cc(N3CCC(N(C)C)CC3)n2)nc1C` here?
Answer: The IC50 was > 25 µM.

Question: What about the solubility [3] of the same compound?
Answer: Its solubility is > 20 µg/mL.

Question: What about the IC50 [4] of the same compound?
Answer: The IC50 was 9.5 µM.

Question: And the IC50 (PBMC [5])?
Answer: The IC50 was 2 µM.

Question: And the IC50 [6]?
Answer: Its IC50 is 15 µM.

Question: What about the IC50 [1] of the same compound?
Answer: The IC50 was 0.13 µM.

Question: What about the IC50 [7] of the same compound?
Answer: The IC50 was > 10 µM.

Question: And the IC50 [8]?
Answer: The IC50 was 13 µM.

Question: What does the source list for `CCOC(=O)c1sc(Nc2nc(N3CCC(N(C)C)CC3)cc(N3CCNC(C(N)=O)C3)n2)nc1C` (stereo not given)?
Answer: IC50 (PBMC [2]): > 25 µM; solubility [3]: > 20 µg/mL; IC50 [4]: 8 µM; IC50 (PBMC [5]): 3.1 µM; IC50 [6]: 23 µM; IC50 [1]: 0.082 µM; IC50 [7]: 6.5 µM; IC50 [8]: > 50 µM

Question: Which results are given for `CCOC(=O)c1sc(Nc2nc(NCc3ccc(OC)c(OC)c3)cc(N3CCNCC3)n2)nc1C`?
Answer: IC50 (PBMC [2]): 12 µM; solubility [3]: > 20 µg/mL; IC50 [4]: 2.3 µM; IC50 (PBMC [5]): 1.2 µM; IC50 [6]: > 10 µM; IC50 [1]: 0.031 µM; IC50 [7]: 0.32 µM; IC50 [8]: 8 µM

Question: Which IC50 (PBMC [2]) does the source give for `CCOC(=O)c1sc(Nc2nc(N3CCN(C)CC3)cc(N3CCN(CCN(C)C)CC3)n2)nc1C` here?
Answer: The IC50 was 15 µM.

Question: And the solubility [3]?
Answer: Its solubility is > 20 µg/mL.

Question: And the IC50 [4]?
Answer: Its IC50 is 9.4 µM.

Question: What about the IC50 (PBMC [5]) of the same compound?
Answer: Its IC50 is 2.2 µM.

Question: What about the IC50 [6] of the same compound?
Answer: Its IC50 is 27 µM.

Question: What about the IC50 [1] of the same compound?
Answer: The IC50 was 0.056 µM.

Question: And the IC50 [7]?
Answer: Its IC50 is > 10 µM.

Question: And the IC50 [8]?
Answer: The IC50 was 19 µM.

Question: What does the source list for `CCOC(=O)c1sc(Nc2nc(N(C)Cc3cc(OC)c(OC)c(OC)c3)cc(N3CCNCC3)n2)nc1C`?
Answer: IC50 (PBMC [2]): 14 µM; solubility [3]: > 20 µg/mL; IC50 [4]: 3.2 µM; IC50 (PBMC [5]): 0.45 µM; IC50 [6]: 7.9 µM; IC50 [1]: 0.01 µM; IC50 [7]: 7.6 µM; IC50 [8]: 22 µM

Question: With `CCOC(=O)c1sc(Nc2nc(NCc3ccc(S(N)(=O)=O)cc3)cc(N3CCNCC3)n2)nc1C` as the compound, how does the IC50 (PBMC [2]) read?
Answer: The IC50 was > 25 µM.

Question: And the solubility [3]?
Answer: Its solubility is 20 µg/mL (≈ 37.5 µM).

Question: What about the IC50 [4] of the same compound?
Answer: The IC50 was 0.22 µM.

Question: And the IC50 (PBMC [5])?
Answer: The IC50 was 7.2 µM.

Question: And the IC50 [6]?
Answer: Its IC50 is 4.1 µM.

Question: What about the IC50 [1] of the same compound?
Answer: Its IC50 is 0.01 µM.

Question: What about the IC50 [7] of the same compound?
Answer: Its IC50 is 0.072 µM.

Question: And the IC50 [8]?
Answer: The IC50 was 2.8 µM.

Question: Which IC50 (PBMC [2]) does the source give for `CCOC(=O)c1sc(Nc2nc(N(C)Cc3cc(OC)c(OC)c(OC)c3)cc(N3CCN(C)CC3)n2)nc1C` here?
Answer: The IC50 was > 25 µM.

Question: What about the solubility [3] of the same compound?
Answer: Its solubility is > 20 µg/mL.

Question: And the IC50 [4]?
Answer: Its IC50 is 5.1 µM.

Question: What about the IC50 (PBMC [5]) of the same compound?
Answer: Its IC50 is 0.69 µM.

Question: And the IC50 [6]?
Answer: Its IC50 is 4.1 µM.

Question: And the IC50 [1]?
Answer: The IC50 was 0.039 µM.

Question: What about the IC50 [7] of the same compound?
Answer: The IC50 was 5.2 µM.

Question: What about the IC50 [8] of the same compound?
Answer: The IC50 was 27 µM.

Question: For `CCOC(=O)c1sc(Nc2nc(NC)cc(NCc3ccc(S(N)(=O)=O)cc3)n2)nc1C`, which IC50 (PBMC [2]) is on record?
Answer: Its IC50 is > 25 µM.

Question: What about the IC50 [4] of the same compound?
Answer: The IC50 was 0.03 µM.

Question: And the IC50 (PBMC [5])?
Answer: The IC50 was 0.5 µM.

Question: What about the IC50 [6] of the same compound?
Answer: The IC50 was > 10 µM.

Question: What about the IC50 [1] of the same compound?
Answer: The IC50 was 0.1 µM.

Question: What about the IC50 [7] of the same compound?
Answer: The IC50 was 0.065 µM.

Question: And the IC50 [8]?
Answer: Its IC50 is > 50 µM.

Question: For `CCOC(=O)c1sc(Nc2nc(N3CCC(N(C)C)CC3)cc(N3CCN(C)CC3)n2)nc1C`, which IC50 (PBMC [2]) is on record?
Answer: The IC50 was 15 µM.

Question: And the solubility [3]?
Answer: Its solubility is > 20 µg/mL.

Question: And the IC50 [4]?
Answer: The IC50 was > 10 µM.

Question: And the IC50 (PBMC [5])?
Answer: Its IC50 is 2.5 µM.

Question: And the IC50 [6]?
Answer: The IC50 was > 50 µM.

Question: What about the IC50 [1] of the same compound?
Answer: Its IC50 is 0.083 µM.

Question: What about the IC50 [7] of the same compound?
Answer: The IC50 was > 10 µM.

Question: And the IC50 [8]?
Answer: Its IC50 is 46 µM.
